In article PMC9636434, “Discovery of small molecule agonists of the Relaxin Family Peptide Receptor 2” (Communications Biology, 2022):
“And” between values parts separate entries of the source, which are not always exact repeats. Equal entries are not always repeated.

Columns and labels:
[1] = tested on: osteoblast markers Alp, Col1a1, Osteocalcin, Runx2; assay: Quantitative RT-PCR of osteoblast markers in tibia after 8-week oral treatment; type: in vivo, mouse; details: normalized to control group, 10 mg/kg PO, 8 weeks, individual mice
[2] = target: T1, RXFP2 (Homo sapiens, UniProt Q8WXD0); assay: PRESTO-Tango β-arrestin recruitment, RXFP2; type: cell-based; set-up: host or cells: HTLA (transient); details: 10 µM compound
T1 sequence (Q8WXD0 whole entry): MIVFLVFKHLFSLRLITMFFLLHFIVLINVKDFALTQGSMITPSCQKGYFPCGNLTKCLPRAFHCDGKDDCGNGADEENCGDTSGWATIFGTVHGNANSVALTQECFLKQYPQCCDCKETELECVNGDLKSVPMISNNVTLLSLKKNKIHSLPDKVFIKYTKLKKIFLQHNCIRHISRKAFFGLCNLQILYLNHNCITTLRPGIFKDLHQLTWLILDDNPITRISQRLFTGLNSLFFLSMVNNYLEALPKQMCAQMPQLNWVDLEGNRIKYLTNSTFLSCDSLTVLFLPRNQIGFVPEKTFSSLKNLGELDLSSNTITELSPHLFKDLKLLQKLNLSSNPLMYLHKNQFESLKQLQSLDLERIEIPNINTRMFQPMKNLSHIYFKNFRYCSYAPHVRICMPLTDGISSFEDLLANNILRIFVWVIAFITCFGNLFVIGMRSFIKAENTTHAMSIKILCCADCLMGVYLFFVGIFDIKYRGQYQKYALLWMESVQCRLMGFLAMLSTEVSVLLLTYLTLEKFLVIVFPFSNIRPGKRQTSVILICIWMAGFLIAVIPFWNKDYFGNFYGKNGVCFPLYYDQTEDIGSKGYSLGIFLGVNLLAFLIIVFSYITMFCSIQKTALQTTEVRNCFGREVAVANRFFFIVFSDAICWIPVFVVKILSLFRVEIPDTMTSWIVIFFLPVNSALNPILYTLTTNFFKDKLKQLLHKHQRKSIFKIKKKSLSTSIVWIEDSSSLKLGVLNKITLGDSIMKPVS
Experimental: β-arrestin is an important GPCR adaptor protein that mediates several receptor processes including signaling, desensitization, and trafficking. The PRESTO-Tango GPCRome assay was further used to test specificity and selectivity of lead RXFP2 agonists 6641 and 4337. GPCR-mediated β-arrestin recruitment for a panel of 320 human GPCRs was studied in transiently transfected HTLA cells treated with 10 µM compound. The results for all 320 GPCRs tested are summarized in Supplementary Data 1. […] ADORA1 activation by an agonist results in Gαi protein binding, an inhibition of adenylate cyclase and, therefore, a decrease in the cAMP concentration.
To further investigate possible off-target effects of small molecule agonists of RXFP2 on GPCRs, we performed a PRESTO-Tango assay of 320 GPCRs to detect β-arrestin recruitment to the receptors after treatment with our compounds. […] This might be beneficial in clinical applications, as it potentially reduces the amount of drug needed to induce a biological response for this target, even in cells with low receptor expression. It should be noted also that a PRESTO-Tango assay is not designed to detect inhibitors of β-arrestin recruitment.
The PRESTO-Tango GPCRome assay was used to perform a HTS of related GPCRs to study specificity and selectivity of the RXFP2 agonists by measuring β-arrestin translocation activity. […]

[3] = target: T1, RXFP2; assay: INSL3 allosteric modulation experiment, HTRF cAMP, co-treatment 6641 and INSL3; type: cell-based; set-up: FLAG (N); expressed in transfected cells; details: for % Eff: 6641 alone, replicates (1)-(3)
Description: We have further analyzed the effect of simultaneous activation of human RXFP2 with 6641 and INSL3 to evaluate possible allosteric modulation of INSL3 cAMP signaling by the small molecule (Supplementary Fig. 8).
The HTRF Gs dynamic cAMP assay kit (CisBio, Bedford, MA) was used to measure intracellular cAMP accumulation in HEK293T cells (ATCC, Manassas, VA)[56]. […] The cell stock was verified mycoplasma free and authenticated by ATCC. Transient transfection was accomplished by treating cells in a 6-well plate with a mixture of 2 μg plasmid and 6 μL Lipofectamine 2000 (Invitrogen, Waltham, MA) per manufacturer’s protocol and incubating overnight. For cAMP measurement in 96-well format, HEK293T cells stably transfected with human RXFP2 (HEK-RXFP2), human RXFP1 (HEK-RXFP1), mouse Rxfp1 (HEK-Rxfp1) or transiently transfected with human RXFP1-RXFP2 chimeric receptors were seeded between 7500 and 30,000 cells per well, depending on cell line responsiveness, in serum-free DMEM medium and incubated overnight at 37 °C, 5% CO2. After 18 h, cells were treated with a titration of compound, 2 μM forskolin, or DMSO vehicle. Control wells were also treated with a titration of INSL3 (Phoenix Pharmaceuticals, Burlingame, CA) or human recombinant relaxin 2 (Peprotech, Cranbury, NJ). For the RXFP2 antagonist experiment, cells were co-treated with 0.28 μM compound or 30 nM INSL3 and a titration of the INSL3 B dimer antagonist[38],[39]. For the INSL3 allosteric modulation experiment, cells were co-treated with 0.025, 0.0025, or 0.00025 μM of compound and a titration of INSL3. Cells were incubated for 1 h at 37 °C, 5% CO2, and then kit cAMP-d2 and anti-cAMP antibody were added per manufacturer protocol. Plates were incubated for 1 h at room temperature and the signal was read on a CLARIOstar plate reader (BMG Labtech, Ortenberg, Germany) at 665 and 620 nm emission wavelengths.
cAMP response in HEK293T cells expressing human RXFP2 was measured by HTRF
assay after treatment with a titration of INSL3 and suboptimal concentrations of 6641.
Results are expressed as mean ± SEM of 3 independent experiments.
(1 picture or pasted object on this page, not shown here)

[4] = tested on: trabecular bone of femur; assay: Micro-CT of trabecular bone in femur after 8-week oral treatment; type: in vivo, mouse; set-up: Mat.D / Tb.N / Tb.Th / Tb.Sp / Conn.D: unit not given here
[5] = tested on: human aortic vascular smooth muscle cells (HAVSMC); assay: CellTiter-Glo cytotoxicity assay in HAVSMC cells; type: cell-based; details: experiments (1)-(3)
Description: Fig. 4 RXFP2 agonists induce mineralization of primary human osteoblasts and are non-cytotoxic. a Mineral hydroxyapatite fluorescent quantification after 14-day treatment in HCO cells. Results were normalized to control DMSO as 100% mineralization. b HCO and c HAVSMC toxicity after 24-h treatment with RXFP2 agonists, normalized to DMSO treatment as 0% toxicity. Results are expressed as mean ± SEM of 3 independent experiments. *p < 0.05, *** p < 0.001 vs. DMSO using One-way ANOVA.
Cell viability studies were undertaken to identify potential cytotoxic effects of the RXFP2 agonists. HCO cells and human aortic vascular smooth muscle cells (HAVSMC) were treated for 24 h. […] At 8.3 µM and below, no toxicity was found in HCO cells and toxicity was below 20% in HAVSMC cells for all three compounds (Fig. 4b, c).
The ATP CellTiter-Glo Luminescent Cell Viability Assay (Promega, Madison, WI) was used to measure cytotoxicity induced by the compounds in HCO cells and human aortic vascular smooth muscle cells (HAVSMC) (ATCC, Manassas, VA). HCO and HAVSMC cells were seeded in 96-well plates at 3000 and 7000 cells per well respectively. Cells were incubated overnight, treated with compound or DMSO vehicle and incubated for 24 h at 37 °C, 5% CO2. […] Plates were shaken for 2 min, incubated at room temperature for 10 min and the luminescent signal was read on a CLARIOstar plate reader.

[6] = femur trabecular bone, 8-week oral treatment, individual mice

SMILES: O=C1Nc2ccc(-c3cc(C(F)(F)F)cc(C(F)(F)F)c3)cc2C(=O)N2CCN(C(=O)COc3ccc(OC(F)(F)F)cc3I)C[C@@H]12 [compound 6641]
- Alp gene expression [1]: No significant differences and 0.88 and 1.46 and 1.09 and 1.63 and 1.11 and 1.2 and 1.13 and 0.7 and 1.17 and 0.71 and 0.82 and 1.61 and 1.28 and 1.02
- Col1a1 gene expression [1]: No significant differences and 1.04 and 1.44 and 0.9 and 1.62 and 0.96 and 1.32 and 0.82 and 1.12 and 1.24 and 0.81 and 0.88 and 1.29 and 0.93
- Osteocalcin gene expression [1]: significant increase and 1.47 and 0.79 and 1.35 and 1.31 and 2.35 and 1.34 and 2.19 and 1.5 and 2.42 and 1.3 and 1.4 and 1.23 and 2.1 and 1.83 and 1.39
- Runx2 gene expression [1]: decrease and 0.41 and 0.71 and 0.95 and 0.75 and 1.16 and 0.6 and 0.57 and 0.72 and 0.73 and 0.89 and 0.83 and 1.42 and 1.07 and 0.66
- RXFP2-mediated β-arrestin recruitment [2]: not detected
- effect of co-stimulation with INSL3 on cAMP production ([3]; 0.025, 0.0025 or 0.00025 μM compound and titration of INSL3): simple additive effect
- % Eff ([3]; Log [M] -4.60): 75.1113% and 97.1676% and 94.1213%
- % Eff ([3]; Log [M] -5.60): 93.2943% and 114.987% and 113.554%
- % Eff ([3]; Log [M] -6.60): 74.6686% and 120.861% and 97.4942%
- % Eff ([3]; Log [M] -7.60): 50.914% and 51.0623% and 52.8348%
- % Eff ([3]; Log [M] -8.60): 8.681% and 8.081% and 10.3062%
- % Eff ([3]; Log [M] -9.60): 0.2079% and -1.122% and -1.231%
- femur trabecular parameters (micro-CT) ([4]; 10 mg/kg PO 3 times per week, 8 weeks): no changes
- BV/TV (%) [4, 6]: 4.31% and 3.06% and 3.16% and 4.83% and 2.23% and 3.75% and 3.15% and 4.04% and 1.79% and 1.82% and 3.85% and 4.53% and 2.18% and 3.86% and 3.36%
- Conn.D [4, 6]: 30.1255 and 5.8494 and 15.74 and 19.1725 and 7.6938 and 27.3442 and 18.8338 and 25.1693 and 0 and -0.6363 and 15.6001 and 25.2137 and 3.3792 and 27.5856 and 14.5139
- Mat.D [4, 6]: 834.454 and 848.06 and 875.94 and 870.004 and 796.836 and 823.449 and 732.807 and 765.822 and 734.474 and 726.404 and 778.428 and 781.83 and 731.073 and 806.374 and 872.538
- Tb.N [4, 6]: 3.0955 and 3.1972 and 2.9789 and 2.9022 and 2.8329 and 3.2718 and 2.9757 and 3.3227 and 2.8446 and 3.0319 and 3.0922 and 3.1695 and 2.9848 and 3.092 and 2.9537
- Tb.Sp [4, 6]: 0.3236 and 0.3094 and 0.3391 and 0.3456 and 0.3545 and 0.3064 and 0.3348 and 0.3029 and 0.3454 and 0.3314 and 0.3266 and 0.317 and 0.3334 and 0.3226 and 0.3354
- Tb.Th [4, 6]: 0.0422 and 0.0404 and 0.0416 and 0.0484 and 0.033 and 0.037 and 0.035 and 0.0363 and 0.0299 and 0.0308 and 0.0384 and 0.0447 and 0.0326 and 0.0382 and 0.0437
- % Tox ([5]; Log [M] -5.08, 24 h): 15.51% and 24.11% and 15.33%
- % Tox ([5]; Log [M] -5.56, 24 h): 15.84% and 5.85%
